The values below come from patent publication US20120041070A1, “METHODS OF TREATING CANCER HAVING AN ABERRANT EGFR OR KRAS GENOTYPE” (priority 2009, published 2012).

Assay [1] deals with HME-TERT-EGFR (del E746-A750) cells. The assay can be described thus: MTS cell proliferation assay, HME-TERT cells carrying EGFR mutation. Type of assay: cell-based, human. Particulars: for EC50: Homo sapiens, HME-TERT-EGFR (del E746-A750), MTS, 0.5% FBS, read-out: Inhibition of cell proliferation: EC50, EGFR. The method, then:
(§1) To investigate the effect of phenformin on proliferation of cells carrying an EGFR mutation, HME cell proliferation assays were performed. An isogenic HME-TERT cell line carrying a mutation in EGFR (del E746-A750) was generated by a “knock in” approach. HME-TERT-EGFR (del E746-A750) cells and control HME parental cells were cultured in DMEM/F12K (glucose 17 mM, glutamine 2.5 mM) with 0.5% FBS, and were treated with a series of dilution of Paclitaxel (100 nM top concentration, 3-fold dilution), Phenformin (3 mM top concentration, 3-fold dilution), or metformin (10 mM top concentration, 3-fold dilution), in duplication or triplication. MTS assays were performed 48, 72, 96 or 120 hours after drug treatment. MTS assay is a colorimetric assay for determining the number of viable cells (see, e.g., Cory A H et al., 1991, Cancer communications 3 (7): 207-12, and Wilson, A P, Cytotoxicity and Viability Assays in Animal Cell Culture: A Practical Approach, 3rd ed. (ed. Masters, J. R. W.) Oxford University Press, 2000, Vol. 1). […] Z′ is defined as Z′=1-3(MAX stdev−background stdev)/(MAX−background). A Z′ value greater than 0.4 is acceptable for cell assays, and a Z′ value greater than 0.6 is acceptable for enzyme assays.
(In general: Tetrazolium dyes change colour on reduction, which living cells bring about.)

The test system of assay [2] is A549 NSCL (KRAS mutant) cells. Nature of the assay: A549 cell proliferation assay (Cell TiterGlow, total ATP). Type of assay: cell-based. Particulars: for EC50: Homo sapiens, A549, DMEM 10% FBS, 72 hours, Cell TiterGlow, read-out: EC50, inhibition of A549 cell proliferation. The method, then: To investigate the effect of phenformin on proliferation of a commonly used cancer cell line A549 NSCL (KRAS mutant), a cell proliferation assay was performed. A549 cells were grown in DMEM with 10% FBS, and were treated with designated concentrations (phenformin dose range 0-100 μM; metformin dose range 0-3000 μM) of drugs for 72 hours. Cell viability was determined with Cell TiterGlow to measure total ATP content in live cells.
On the technique in general: In ATP-based viability assays light output follows the ATP content of the culture.

Assay [3] has as its system HME-TERT-KRAS (G13D) cells. Nature of the assay: MTS cell proliferation assay, HME-TERT cells carrying KRAS mutation. As to conditions: for EC50: Homo sapiens, HME-TERT-KRAS (G13D), MTS, 0.5% FBS, read-out: Inhibition of cell proliferation: EC50, KRAS. In kind it is cell-based, human. The method, then: (§2) To investigate the effect of phenformin on proliferation of cells carrying a KRAS mutation, HME cell proliferation assays were performed. An isogenic HME-TERT cell line carrying a mutation in KRAS (G13D) was generated by a “knock in” approach. HME-TERT-KRAS (G13D) cells and control HME parental cells were cultured in DMEM/F12K (glucose 17 mM, glutamine 2.5 mM) with 0.5% FBS, and were treated with a series of dilution of Paclitaxel (100 nM top concentration, 3-fold dilution), Phenformin (3 mM top concentration, 3-fold dilution), or metformin (10 mM top concentration, 3-fold dilution), in duplication or triplication. MTS assays were performed 48, 72, 96 or 120 hours after drug treatment. MTS assay is a colorimetric assay for determining the number of viable cells (see, e.g., Cory A H et al., 1991, Cancer communications 3 (7): 207-12, and Wilson, A P, Cytotoxicity and Viability Assays in Animal Cell Culture: A Practical Approach, 3rd ed. (ed. Masters, J. R. W.) Oxford University Press, 2000, Vol. 1). […] Z′ is defined as Z′=1-3(MAX stdev−background stdev)/(MAX−background). A Z′ value greater than 0.4 is acceptable for cell assays, and a Z′ value greater than 0.6 is acceptable for enzyme assays.

The test system of assay [4] is HME-TERT parental (wild type) cells. Nature of the assay: MTS cell proliferation assay, control HME parental (WT) cells. In kind it is cell-based. Particulars: Homo sapiens, 0.5% FBS, read-out: Inhibition of cell proliferation: EC50, WT. The method, then: as §1, §2

Read-outs that look alike come from different tables or passages of the source. A value given as a limit tells only on which side of the number the result lay.

Consider `N=C(N)NC(=N)NCCc1ccccc1` [phenformin], for which the EC50 is 1680 µM in assay [1] (48 h); 632 µM in assay [1] (72 h); 486 µM in assay [1] (96 h); 393 µM in assay [1] (120 h); 5 µM in assay [2]; 1640 µM in assay [3] (48 h). The EC50 in assay [3] (72 h) is 1250 µM; in assay [3] (96 h), 727 µM; in assay [3] (120 h) it was 440 µM; in assay [4] (48 h after drug treatment) it was 2090 µM; in assay [4] (72 h after drug treatment), 1690 µM; in assay [4] (96 h after drug treatment), 1140 µM. Besides, in assay [4] (120 h after drug treatment), the EC50 was determined as 626 µM. In addition, the “inhibition of proliferation of EGFR mutated HME cells compared with wild type cells” value in assay [1] (MTS assay, result in words) is on record as “more than that of wild type cells”. For the same molecule, the “fold more sensitive than metformin in inhibiting the proliferation of A549 cells” value in assay [2] (A549, 72 hours, ratio of EC50 values) is “about 112 fold”. Further, the “inhibition of proliferation of KRAS mutated HME cells compared with wild type cells” value in assay [3] (MTS assay, result in words) was “more than that of wild type cells”.
Take `CN(C)C(=N)N=C(N)N` [metformin]: the EC50 was over 3000 µM in assay [1] (48 h); over 3000 µM in assay [1] (72 h); over 3000 µM in assay [1] (96 h); over 3000 µM in assay [1] (120 h); 650 µM in assay [2]; over 3000 µM in assay [3] (48 h). Moreover, the EC50 in assay [3] (72 h), in assay [3] (96 h), in assay [3] (120 h), in assay [4] (48 h after drug treatment), in assay [4] (72 h after drug treatment) and in assay [4] (96 h after drug treatment) was over 3000 µM throughout. Also, the EC50 in assay [4] (120 h after drug treatment) was over 3000 µM.
